The text below walks through data of patent US4795643A, “Medicament with a delayed release of active ingredient” (priority 1987, dated 1989).

The data set is described as follows: Dissolution Paddle Apparatus (U.S. Pharmacopoeia XX): rate of release of active ingredient from the capsule in water. The format is physicochemical. Here is the method:
For this purpose, the total amount of active ingredient released (cumulative values) is determined after fixed periods of time, in particular after 1, 2, 4, 6 and 8 hours, and this amount is expressed in % by weight of the amount of active ingredient contained in the capsule.

In the case of `COc1ccc(C2Sc3ccccc3N(CCN(C)C)C(=O)C2OC(C)=O)cc1.Cl` (stereo not shown) [diltiazem.HCl, 3-acetoxy-5-(2-dimethylaminoethyl)-2,3-dihydro-2-(4-methoxyphenyl)-1,5-benzothiazepin-4(5H)-one hydrochloride], the “release of diltiazem.HCl” value reads like this: (absence of a polymer, 1.5 hours) 92.5%; (ethylcellulose, HLB of 10.5, 6 hours) 68.5%; (ethylcellulose, HLB of 11.5, 3 hours) 84.5%.
As for `CC(C)Cc1ccc(C(C)C(=O)O)cc1` (stereo not shown) [ibuprofen, 2-(4-isobutylphenyl)-propionic acid], the release of ibuprofen stood at 91.4% (PEG 300-stearate (HLB=9 to 10) with Eudragit S 100 added, 2 hours); 84.8% (PEG 1500-stearate (HLB=17) with Eudragit S 100 added, 8 hours); 98.1% (mixture with PEG 300-stearate, 1 hour); 97% (mixture with PEG 1500-stearate, 0.25 hour).
